We go through 9 molecules from article PMC3760808, “A New Approach to Control the Enigmatic Activity of Aldose Reductase” (PLoS ONE, 2013).

Assay [1] addresses T1, purified bovine lens AR (Bos taurus, UniProt P16116).
T1 construct: AR was purified from bovine lens to electrophoretic homogeneity as described; from tissue; host or cells: bovine lens
The experiment in a line: AR inhibition screening with GAL and HNE as substrates (differential inhibition). The assay is classed as biochemical. As to conditions: for inhibitory action on all the tested substrates (in words): substrates GAL, HNE, glucose (and GS-HNE), Figure 4; for GAL/HNE differential inhibition (percentage inhibition with GAL minus percentage inhibition with HNE): 0.11 mM GAL vs 0.11 mM HNE, at inhibitor concentration giving 50% inhibition or maximal concentration tested. Here is the method: (§1) If not otherwise specified AR activity was determined at 37°C using 4.7 mM D, L-GAL as a substrate in 0.25 M sodium phosphate buffer pH 6.8 containing 0.38 M ammonium sulfate, 0.5 mM EDTA, and 0.2 mM NADPH. AR was purified from bovine lens to electrophoretic homogeneity as described. […] One unit of enzyme activity is the amount of enzyme that catalyzes the oxidation of 1 µmol of NADPH/min under the above-mentioned conditions. The k cat values were obtained on the basis of a molecular weight of AR of 34 KDa. The purified enzyme was stored at 4°C in a 10 mM sodium phosphate buffer pH 7.0 supplemented by 2 mM dithiothreitol and was extensively dialyzed against a 10 mM sodium phosphate buffer pH 7.0 before use.
The nominal concentrations of HNE and GS-HNE solutions used as substrates of AR were determined through a colorimetric assay. […] When testing inhibitors that require DMSO to be solubilized, the same concentration of DMSO (0.7% v/v), was used in the assays both in the presence and absence of the inhibitors.
Thus, the susceptibility of AR to the inhibition exerted by a series of compounds (including some well-known ARIs) was tested at various inhibitor concentrations, using both GAL and HNE as substrates. The results of this screening (Figure 2) are expressed as ”GAL/HNE differential inhibition”, i.e. the difference between the percentage inhibition observed using GAL as a substrate and the percentage inhibition observed using HNE as a substrate. This differential inhibition was calculated at the concentration of the inhibitor leading to 50% inhibition or, when 50% inhibition was not reached, at the maximal concentration tested.
Bars indicate the difference between the percentage inhibition observed using 0.11 mM GAL as substrate and the percentage inhibition using 0.11 mM HNE (differential inhibition). The difference was calculated at the concentration of the inhibitor leading to a 50% inhibition of the reaction more sensitive to the inhibitor (i.e. the reduction of GAL for compounds displaying a positive differential inhibition and the reduction HNE for compounds displaying a negative differential inhibition) or at the maximal concentration tested if 50% inhibition was not reached. […] Framed numbers (1 to 30) refer to the compounds tested as inhibitors.

For assay [2], the target named is T1, purified bovine lens AR. The experiment in a line: AR inhibition with D-glucose as substrate. The assay is classed as biochemical. Here is the method:
as §1
(§2) The nominal concentrations of HNE and GS-HNE solutions used as substrates of AR were determined through a colorimetric assay. These values were confirmed by the total decrease in absorbance at 340 nm measured, in the presence of 0.2 mM NADPH, when HNE and GS-HNE were incubated in the presence of 8 and 150 mU of AR, respectively (Figure S1). When testing inhibitors that require DMSO to be solubilized, the same concentration of DMSO (0.7% v/v), was used in the assays both in the presence and absence of the inhibitors.
Figure 3 Effect of D-glyceramide as differential AR inhibitor. Percentage residual activity was determined at various inhibitor concentrations using the following substrates: 0.11 mM of HNE (squares), GAL (diamonds), GS-HNE (circles) or 7 mM D-glucose (triangles). Error bars represent the standard deviations from at least three independent measurements.
Figure 5 Effect of compounds acting as differential AR inhibitors. Percentage residual activity was determined at various inhibitor concentrations using the following substrates: 0.11 mM HNE (squares), GAL (diamonds), GS-HNE (circles) or 7 mM D-glucose (triangles). Panels a and b refer to compounds 18 and 19, respectively. Error bars represent the standard deviations from at least three completely independent measurements including different enzyme preparations. […]

Assay [3] deals with T1, purified bovine lens AR. The experiment in a line: AR inhibition with GS-HNE as substrate. The assay is classed as biochemical. Here is the method:
If not otherwise specified AR activity was determined at 37°C using 4.7 mM D, L-GAL as a substrate in 0.25 M sodium phosphate buffer pH 6.8 containing 0.38 M ammonium sulfate, 0.5 mM EDTA, and 0.2 mM NADPH. AR was purified from bovine lens to electrophoretic homogeneity as described. […] One unit of enzyme activity is the amount of enzyme that catalyzes the oxidation of 1 µmol of NADPH/min under the above-mentioned conditions. The k cat values were obtained on the basis of a molecular weight of AR of 34 KDa. […]
The nominal concentrations of HNE and GS-HNE solutions used as substrates of AR were determined through a colorimetric assay. These values were confirmed by the total decrease in absorbance at 340 nm measured, in the presence of 0.2 mM NADPH, when HNE and GS-HNE were incubated in the presence of 8 and 150 mU of AR, respectively (Figure S1). […]
Figure 3 Effect of D-glyceramide as differential AR inhibitor. Percentage residual activity was determined at various inhibitor concentrations using the following substrates: 0.11 mM of HNE (squares), GAL (diamonds), GS-HNE (circles) or 7 mM D-glucose (triangles). […]
Figure 5 Effect of compounds acting as differential AR inhibitors. Percentage residual activity was determined at various inhibitor concentrations using the following substrates: 0.11 mM HNE (squares), GAL (diamonds), GS-HNE (circles) or 7 mM D-glucose (triangles). […]

The target in the next assay is T2, bovine lens AR (Bos taurus, UniProt P16116).
T2 construct: AR was purified from bovine lens to electrophoretic homogeneity as described; from tissue; host or cells: bovine lens
The experiment in a line: Kinetic parameters of substrate reduction by AR (double reciprocal plots). The conditions noted are these: 8 mU purified AR, pH 6.8, 37°C. The assay is classed as biochemical. Here is the method: as §1, §2
Figure 1 Double reciprocal plots for reduction of GAL, HNE and GS-HNE by bovine lens AR. Double reciprocal plots of initial rate measurements using of GAL (diamonds), HNE (squares) and GS-HNE (circles) as substrates. The assays were performed in standard conditions using 8 mU of purified AR. Error bars represent the standard deviations from at least three independent measurements.

In the next assay the test system is AR from bovine lens. The arrangement: method as in PMID 8554593, PMID 9445372. The conditions noted are these: pH 6.0; cited from earlier work.
A further assay concerns human skeletal muscle AR. On the set-up: method as in PMID 9890881, PMID 7599164. As to conditions: human skeletal muscle enzyme; cited from earlier work.
The next assay deals with AR from bovine heart. The arrangement: method as in PMID 8554593, PMID 9445372. The conditions noted are these: pH 6.0; cited from earlier work.
For assay [4], the system named is human placental recombinant AR. On the set-up: method as in PMID 9890881, PMID 7599164. The conditions noted are these: human placental recombinant enzyme; cited from earlier work.

In the case of `O=c1cc(-c2ccccc2)nc2cccc(O)n12` [Compound 3], the “inhibitory action on all the tested substrates (in words)” value against purified bovine lens AR [1] was “inhibits the AR catalyzed reduction of all the tested substrates”.
On to `O=C(O)c1cn(Cc2ccccc2)c2ccnn2c1=O` [Compound 18], for which the “type of inhibition, glucose reduction” value on purified bovine lens AR [2] (47 µM inhibitor, double reciprocal plots) is recorded as “competitive inhibition”. In addition, on purified bovine lens AR [3] (0.11 mM GS-HNE, Figure 5), the “inhibition of the AR catalyzed reduction of GS-HNE (in words)” value is on record as “able to inhibit, to a different extent”.
As for `NC(=O)[C@H](O)CO` [Compound 21, D-Glyceramide], the “differential inhibition glucose/HNE (in words)” value at purified bovine lens AR [2] (7 mM D-glucose vs 0.11 mM HNE, Figure 3) is recorded as “observed only at rather high concentrations”. The IC50 at purified bovine lens AR [3] (0.11 mM GS-HNE as substrate, read-out: IC50, reduction of GS-HNE) was about 8 mM; on purified bovine lens AR [1] (GAL as substrate, read-out: IC50 with GAL as substrate), about 10 mM.
With `NC(=O)[C@H](O)[C@@H](O)[C@H](O)[C@H](O)CO` [Compound 26, D gluconamide, reference compound], the “effect on glucose reduction” value on purified bovine lens AR [2] (data not shown) is “no effect”. Further, the “GAL/HNE differential inhibition (percentage inhibition with GAL minus percentage inhibition with HNE)” value at purified bovine lens AR [1] is listed as “significant”.
Consider `O=C1NC(=O)[C@@]2(CCOc3ccc(F)cc32)N1` [Compound 29, Sorbinil], for which, at purified bovine lens AR [1], the “GAL/HNE differential inhibition (percentage inhibition with GAL minus percentage inhibition with HNE)” value was “negligible” and the “inhibitory action on all the tested substrates (in words)” value is “potent inhibitory action on all the tested substrates”.
`CC(/C=C1\SC(=S)N(CC(=O)O)C1=O)=C\c1ccccc1` [Compound 30, Epalrestat] registered an IC50 against purified bovine lens AR [1] of 0.0005 mM.
Consider `O=C[C@@H](O)CO` [GAL, D, L-glyceraldehyde], for which, at bovine lens AR, the Michaelis-Menten constant (Km) was determined as 39 ± 4 µM and the k cat worked out at 0.783 ± 0.05 s⁻¹.
`CCCCCC(O)C(CC=O)SC[C@H](NC(=O)CC[C@H](N)C(=O)O)C(=O)NCC(=O)O` (stereo partly drawn) [GS-HNE, 3-glutathionyl-4-hydroxy-nonanal]: at bovine lens AR, the Michaelis constant (Km) is 105 ± 6 µM and the k cat was 0.683 ± 0.033 s⁻¹.
For `CCCCCC(O)/C=C/C=O` (stereo not drawn) [HNE, 4-hydroxy-2,3-nonenal], the Km in the assay with AR from bovine lens is 8.8 ± 0.9 µM; in the assay with human skeletal muscle AR it was 22 µM; with AR from bovine heart it was 7 ± 2 µM; on bovine lens AR it was 37 ± 1 µM; in assay [4], 28 ± 9 µM. Moreover, the k cat at bovine lens AR turned out to be 0.8 ± 0.017 s⁻¹.

What is called IC50 is the concentration at which inhibition is half-maximal. Broadly, the Km is the concentration of substrate that gives half-maximal velocity.
